# US20060094719A1, “Tetralin histamine-3 receptor antagonists” (Pfizer Inc, priority 2004, published 2006)
# Biological target: T1, rat histamine H3 receptors (Rattus norvegicus, UniProt Q9QYN8)
# T1 construct: Frozen rat frontal brain or frozen human post-mortem frontal brain is homogenized; from tissue; host or cells: rat frontal brain membranes
# Assay: Rat H3 binding, 3H-N-methylhistamine displacement in frontal brain membranes
# Conditions: radioligand 1 nM 3H-N-methylhistamine, 1-hour incubation
# Method: The in vitro affinity of the compounds in the present invention at the rat or human histamine H3 receptors can be determined according to the following procedure. Frozen rat frontal brain or frozen human post-mortem frontal brain is homogenized in 20 volumes of cold 50 mM Tris.HCl containing 2 mM MgCl2 (pH to 7.4 at 4° C.). The homogenate is then centrifuged at 45,000 G for 10 minutes. The supernatant is decanted and the membrane pellet re-suspended by Polytron in cold 50 mM Tris.HCl containing 2 mM MgCl2 (pH to 7.4 at 4 degrees C.) and centrifuged again. The final pellet is re-suspended in 50 mM Tris HCl containing 2 mM MgCl2 (pH to 7.4 at 25 degrees C.) at a concentration of 12 mg/mL. Dilutions of compounds are made in 10% DMSO/50 mM Tris buffer (pH 7.4) (at 10×final concentration, so that the final DMSO concentration is 1%). Incubations are initiated by the addition of membranes (200 microliters) to 96-well V-bottom polypropylene plates containing 25 microliters of drug dilutions and 25 microliters of radioligand (1 nM final concentration ^3H-N-methylhistamine). After a 1-hour incubation, assay samples are rapidly filtered through Whatman GF/B filters and rinsed with ice-cold 50 mM Tris buffer (pH 7.4) using a Skatron cell harvester. Radioactivity is quantified using a BetaPlate scintillation counter.
# T1 sequence (Q9QYN8 whole entry): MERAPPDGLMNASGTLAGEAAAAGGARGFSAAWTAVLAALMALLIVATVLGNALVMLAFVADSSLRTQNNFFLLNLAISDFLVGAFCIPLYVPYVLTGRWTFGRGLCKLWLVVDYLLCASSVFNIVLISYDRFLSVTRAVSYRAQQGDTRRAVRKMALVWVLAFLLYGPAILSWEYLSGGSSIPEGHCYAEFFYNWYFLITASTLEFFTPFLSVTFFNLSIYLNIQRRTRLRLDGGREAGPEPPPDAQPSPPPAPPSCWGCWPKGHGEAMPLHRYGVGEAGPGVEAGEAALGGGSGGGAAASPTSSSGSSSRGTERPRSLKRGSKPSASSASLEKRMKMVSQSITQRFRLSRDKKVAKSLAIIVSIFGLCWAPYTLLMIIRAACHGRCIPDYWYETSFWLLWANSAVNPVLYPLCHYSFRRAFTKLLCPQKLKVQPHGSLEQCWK
row,Compound,Ki [nM]
1,"c1cc2c(cc1OCCCN1CCCCC1)CCC(CN1CCCC1)C2 (racemic) [3 (±), (±)-1-[3-(6-Pyrrolidin-1-ylmethyl-5,6,7,8-tetrahydro-naphthalen-2-yloxy)-propyl]-piperidine]",8.4
2,"Cl.c1cc2c(cc1OCCCN1CCCC1)CCC(CN1CCCC1)C2 (racemic) [6 (±), (±)-1-[3-(6-Pyrrolidin-1-ylmethyl-5,6,7,8-tetrahydro-naphthalen-2-yloxy)-propyl]-pyrrolidine hydrochloride]",9
3,"Cl.c1cc2c(cc1OCCCN1CCC(N3CCCCC3)CC1)CCC(CN1CCCC1)C2 (racemic) [7 (±), (±)-1′-[3-(6-Pyrrolidin-1-ylmethyl-5,6,7,8-tetrahydro-naphthalen-2-yloxy)-propyl]-[1,4′]bi-piperidinyl hydrochloride]",3
4,"CC1CCCN(CCCOc2ccc3c(c2)CCC(CN2CCCC2)C3)C1 (single isomer, unassigned; (+)) [40 (+), (+)-3-Methyl-1-[3-(6-pyrrolidin-1-ylmethyl-5,6,7,8-tetrahydro-naphthalen-2-yloxy)-propyl]-piperidine]",8.4
5,"Cl.c1cc2c(cc1OCCCN1CCCCC1)CCC(CN1CCCC1)C2 (single isomer, unassigned; (-)) [10 (−), (−)-1-[3-(6-Pyrrolidin-1-ylmethyl-5,6,7,8-tetrahydro-naphthalen-2-yloxy)-propyl]-piperidine hydrochloride]",1.1
6,"CC1(C)CCCN(CCCOc2ccc3c(c2)CCC(CN2CCCC2)C3)C1.Cl (single isomer, unassigned; (-)) [15 (−), (−)-3,3-Dimethyl-1-[3-(6-pyrrolidin-1-ylmethyl-5,6,7,8-tetrahydro-naphthalen-2-yloxy)-propyl]-piperidine hydrochloride]",5
7,"Cl.c1cc2c(cc1OCCCNC1CCC3(CCCCC3)CC1)CCC(CN1CCCC1)C2 (single isomer, unassigned; (-)) [16 (−), (−)-[3-(6-Pyrrolidin-1-ylmethyl-5,6,7,8-tetrahydro-naphthalen-2-yloxy)-propyl]-spiro[5.5]undec-3-ylamine hydrochloride]",7.2
8,"CC1CCCN(CCCOc2ccc3c(c2)CCC(CN2CCCC2)C3)C1 (single isomer, unassigned; (-)) [40 (−), (−)-3-Methyl-1-[3-(6-pyrrolidin-1-ylmethyl-5,6,7,8-tetrahydro-naphthalen-2-yloxy)-propyl]-piperidine]",3.54
9,"CC1CCCCN1CCCOc1ccc2c(c1)CCC(CN1CCCC1)C2 (single isomer, unassigned; (-)) [41 (−), (−)-2-Methyl-1-[3-(6-pyrrolidin-1-ylmethyl-5,6,7,8-tetrahydro-naphthalen-2-yloxy)-propyl]-piperidine]",5.89
10,"CC1CCN(CCCOc2ccc3c(c2)CCC(CN2CCCC2)C3)CC1 (single isomer, unassigned; (-)) [42 (−), (−)-4-Methyl-1-[3-(6-pyrrolidin-1-ylmethyl-5,6,7,8-tetrahydro-naphthalen-2-yloxy)-propyl]-piperidine]",4.32
11,"CC(CN1CCOCC1)NCCCOc1ccc2c(c1)CCC(CN1CCCC1)C2 (single isomer, unassigned; (-)) [51 (−), (−)-(1-Methyl-2-morpholin-4-ylethyl)-[3-(6-pyrrolidin-1-ylmethyl-5,6,7,8-tetrahydro-naphthalen-2-yloxy)-propyl]-amine]",6.2
12,"c1cc2c(cc1OCCCN1CC3CCCC1C3)CCC(CN1CCCC1)C2 (single isomer, unassigned; (-)) [65 (−), (−)-6-[3-(6-Pyrrolidin-1-ylmethyl-5,6,7,8-tetrahydro-naphthalen-2-yloxy)-propyl]-6-azabicyclo-[3.2.1]octane]",2.11
13,"CC1CC(C)CN(CCCOc2ccc3c(c2)CCC(CN2CCCC2)C3)C1 (single isomer, unassigned; (-)) [81 (−), (−)-3,5-Dimethyl-1-[3-(6-pyrrolidin-1-ylmethyl-5,6,7,8-tetrahydro-naphthalen-2-yloxy)-propyl]-piperidine]",9.14
14,"Cl.Cl.c1cc2c(cc1OCCN1CCCCC1)CCC(CN1CCCC1)C2 (single isomer, unassigned; (-)) [92 (−), (−)-1-[2-(6-Pyrrolidin-1-ylmethyl-5,6,7,8-tetrahydro-naphthalen-2-yloxy)-ethyl]-piperidine dihydrochloride]",11.3

# More lines, now with the values ahead:
row,Ki [nM],Compound
1,9.6,"Fc1ccc(C2CCCN2CCCOc2ccc3c(c2)CCC(CN2CCCC2)C3)cc1 (single isomer, unassigned; (+)) [71 (+), (+)-2-(4-Fluorophenyl)-1-[3-(6-pyrrolidin-1-ylmethyl-5,6,7-8-tetrahydro-naphthalen-2-yloxy)-propyl]-pyrrolidine]"
2,0.84,"Clc1ccc(CNCCCOc2ccc3c(c2)CCC(CN2CCCC2)C3)cc1 (single isomer, unassigned; (-)) [24 (−), (−)-(4-Chlorobenzyl)-[3-(6-pyrrolidin-1-ylmethyl-5,6,7,8-tetrahydro-naphthalen-2-yloxy)-propyl]-amine]"
3,1.58,"Clc1ccc(CNCCCOc2ccc3c(c2)CCC(CN2CCCC2)C3)cc1Cl (single isomer, unassigned; (-)) [27 (−), (−)-(3,4-Dichlorobenzyl)-[3-(6-pyrrolidin-1-ylmethyl-5,6,7,8-tetrahydro-naphthalen-2-yloxy)-propyl]-amine]"
4,4.7,"c1ccc(CNCCCOc2ccc3c(c2)CCC(CN2CCCC2)C3)cc1 (single isomer, unassigned; (-)) [28 (−), (−)-Benzyl-[3-(6-pyrrolidin-1-ylmethyl-5,6,7,8-tetrahydro-naphthalen-2-yloxy)-propyl]-amine]"
5,1.25,"Fc1ccc(CNCCCOc2ccc3c(c2)CCC(CN2CCCC2)C3)cc1 (single isomer, unassigned; (-)) [32 (−), (−)-(4-Fluorobenzyl)-[3-(6-pyrrolidin-1-ylmethyl-5,6,7,8-tetrahydro-naphthalen-2-yloxy)-propyl]-amine]"
6,4.5,"CN(CCCOc1ccc2c(c1)CCC(CN1CCCC1)C2)Cc1ccco1 (single isomer, unassigned; (-)) [55 (−), (−)-Furan-2-ylmethyl-[3-(6-pyrrolidin-1-ylmethyl-5,6,7,8-tetrahydro-naphthalen-2-yloxy)-propyl]-methylamine]"
7,4.36,"c1cc2c(cc1OCCCNC1CCCCC1)CCC(CN1CCCC1)C2 (single isomer, unassigned; (-)) [64 (−), (−)-[3-(6-pyrrolidin-1-ylmethyl-5,6,7,8-tetrahydro-naphthalen-2-yloxy)-propyl]-cyclohexyl-amine]"
8,1.95,"Fc1ccc(CNCCCOc2ccc3c(c2)CCC(CN2CCCC2)C3)cc1F (single isomer, unassigned; (-)) [77 (−), (−)-(3,4-Difluorobenzyl)-[3-(6-pyrrolidin-1-ylmethyl-5,6,7,8-tetrahydro-naphthalen-2-yloxy)-propyl]-amine]"
9,1.9,"Clc1ccc(CNCCCOc2ccc3c(c2)CCC(CN2CCCC2)C3)c(Cl)c1 (single isomer, unassigned; (-)) [79 (−), (−)-(2,4-Dichlorobenzyl)-[3-(6-pyrrolidin-1-ylmethyl-5,6,7,8-tetrahydro-naphthalen-2-yloxy)-propyl]-amine]"

# Tested on: not given
# Assay: not given
# Conditions: not given
row,Compound,melting point
1,Cl.c1cc2c(cc1OCCCNC1CC3CCC1C3)CCC(CN1CCCC1)C2 (stereo not drawn),265.4 to 266.3 °C
2,Cl.c1cc2c(cc1OCCCN1CCC3(CCCCC3)CC1)CCC(CN1CCCC1)C2 (stereo not drawn),287.6 to 290.2 °C
3,CN(C)CCOc1ccc2c(c1)CCC(CN1CCCC1)C2.Cl (racemic),131.6 to 132.8 °C
4,Cl.NC(=O)C1CCN(CCCOc2ccc3c(c2)CCC(CN2CCCC2)C3)CC1 (racemic),211 to 213 °C
5,"c1cc2c(cc1OCCCN1CCCCC1)CCC(CN1CCCC1)C2 (racemic) [3 (±), (±)-1-[3-(6-Pyrrolidin-1-ylmethyl-5,6,7,8-tetrahydro-naphthalen-2-yloxy)-propyl]-piperidine]",180 to 181.4 °C
6,Cl.c1cc2c(cc1OCCCN1CCOCC1)CCC(CN1CCCC1)C2 (racemic) [4],259.9 to 261.4 °C
7,"Cl.c1cc2c(cc1OCCCN1CCCC1)CCC(CN1CCCC1)C2 (racemic) [6 (±), (±)-1-[3-(6-Pyrrolidin-1-ylmethyl-5,6,7,8-tetrahydro-naphthalen-2-yloxy)-propyl]-pyrrolidine hydrochloride]",149.4 to 150.5 °C
8,"Cl.c1cc2c(cc1OCCCN1CCC(N3CCCCC3)CC1)CCC(CN1CCCC1)C2 (racemic) [7 (±), (±)-1′-[3-(6-Pyrrolidin-1-ylmethyl-5,6,7,8-tetrahydro-naphthalen-2-yloxy)-propyl]-[1,4′]bi-piperidinyl hydrochloride]",284.8 °C (dec.)
9,"NC(=O)C1CCCN(CCCOc2ccc3c(c2)CCC(CN2CCCC2)C3)C1 (racemic) [Example 9, (±)-1-[3-(6-Pyrrolidin-1-ylmethyl-5,6,7,8-tetrahydro-naphthalen-2-yloxy)-propyl]-piperidine-3-carboxylic acid amide]",102 to 103.2 °C
10,"Cl.c1cc2c(cc1OCCCN1CCCCC1)CCC(CN1CCCC1)C2 (single isomer, unassigned; (-)) [10 (−), (−)-1-[3-(6-Pyrrolidin-1-ylmethyl-5,6,7,8-tetrahydro-naphthalen-2-yloxy)-propyl]-piperidine hydrochloride]",286.6 to 286.8 °C
11,"CC1(C)CCCN(CCCOc2ccc3c(c2)CCC(CN2CCCC2)C3)C1.Cl (single isomer, unassigned; (-)) [15 (−), (−)-3,3-Dimethyl-1-[3-(6-pyrrolidin-1-ylmethyl-5,6,7,8-tetrahydro-naphthalen-2-yloxy)-propyl]-piperidine hydrochloride]",202 to 204 °C
12,"Cl.c1cc2c(cc1OCCCNC1CCC3(CCCCC3)CC1)CCC(CN1CCCC1)C2 (single isomer, unassigned; (-)) [16 (−), (−)-[3-(6-Pyrrolidin-1-ylmethyl-5,6,7,8-tetrahydro-naphthalen-2-yloxy)-propyl]-spiro[5.5]undec-3-ylamine hydrochloride]",291.5 to 292.9 °C
13,"Cl.Cl.c1cc2c(cc1OCCN1CCCCC1)CCC(CN1CCCC1)C2 (single isomer, unassigned; (-)) [92 (−), (−)-1-[2-(6-Pyrrolidin-1-ylmethyl-5,6,7,8-tetrahydro-naphthalen-2-yloxy)-ethyl]-piperidine dihydrochloride]",265.5 to 266.8 °C
14,Cl.c1cc2c(cc1OCCCN1CCOCC1)CCC(CN1CCCC1)C2 (stereo not drawn) [5],255.4 to 256.4 °C
15,Cl.c1cc2c(cc1OCCCN1CCOCC1)CCC(CN1CCCC1)C2 (stereo not drawn) [11],281.8 to 282.7 °C
16,Cl.c1cc2c(cc1OCCCN1CCCCC1)CCC(CN1CCCC1)C2 (stereo not drawn) [12],256.6 to 258.4 °C
17,Cl.c1cc2c(cc1OCCCN1CCOCC1)CCC(CN1CCCC1)C2 (stereo not drawn) [14],249.6 to 250.4 °C

# The remaining lines, values ahead:
row,melting point,Compound
1,187.7 to 188.7 °C,CN(C)CCCOc1ccc2c(c1)CCC(CN1CCCC1)C2.Cl (racemic) [1]
2,230.6 to 232.8 °C,CN(C)CCCOc1ccc2c(c1)CCC(CN1CCCC1)C2.Cl (stereo not drawn) [13]
